Earlier results in patent US20140018386A1, “LAQUINIMOD FORMULATIONS WITHOUT ALKALIZING AGENT” (Teva Pharmaceutical Industries, Ltd., priority 2012, published 2014).

Key:
[1] = in vivo
[2] = system: various experimental inflammatory/autoimmune animal models; settings: EAE, DSS colitis, NOD mice, EAN, SLE, lupus nephritis, lupus arthritis, Crohn's Disease, Rheumatoid arthritis
[3] = system: relapsing MS
[4] = system: acute experimental autoimmune encephalomyelitis (aEAE) model; settings: in vivo

Row | Oral bioavailability [1] | SMILES | Therapeutic effect [2] | Development of active MRI lesions [3] | Effect in the aEAE model [4]
1 | high oral bioavailability | CCN(C(=O)c1c(O)c2c(Cl)cccc2n(C)c1=O)c1ccccc1 [Laquinimod sodium] |  |  | 
2 |  | CCN(C(=O)c1c(O)c2c(Cl)cccc2n(C)c1=O)c1ccccc1 [Laquinimod, N-ethyl-N-phenyl-1,2-dihydro-4-hydroxy-5-chloro-1-methyl-2-oxoquinoline-3-carboxamide] | demonstrated therapeutic effect | can reduce development of active MRI lesions | effective
